From ChEMBL document CHEMBL6121023, “Discovery of proteolytically stable monocyte locomotion inhibitory factor peptide through systematic structural optimization” (Eur J Med Chem, 2025) come the findings set out here.

The source made the active and inactive calls. The rule behind the calls is not given here. Positions of bridges follow the written chain, without caps; N, C: chain ends. Non-standard residues stand in square brackets, D forms with d. Residues, ends and D or L forms follow the SMILES beside them. ξ: configuration not given here. *: point of attachment. X1 = COCCOCCOCCOCCOCCOCCOCCC(=O)*; NMeN = CN[C@@H](CC(N)=O)C(=O)O; NMeC = CN[C@@H](CS)C(=O)O; NMeS = CN[C@@H](CO)C(=O)O; Heptanoyl = CCCCCCC(=O)*; Orn = NCCC[C@H](N)C(=O)O; ξNMeM = CNC(CCSC)C(=O)O; Pentanoyl = CCCCC(=O)*; ξM = CSCCC(N)C(=O)O

The test system of series [1] is RAW264.7. Put plainly: Antiinflammatory activity in LPS-induced mouse RAW264.7 cells assessed as […] in IL-1beta expression at 1 microg/ml preincubated with compound for 24 hrs followed by LPS addition for 6 hrs by ELISA method. Type of series: functional, cell-based. The conditions noted are these: dose 1.0 µg/ml, time 30.0 hrs.
Series [2] concerns RAW264.7. Put plainly: Antiinflammatory activity in LPS-induced mouse RAW264.7 cells assessed as inhibition of TNF-alpha expression at 1 microg/ml preincubated with compound for 24 hrs followed by LPS addition for 6 hrs by ELISA method. Type of series: functional, cell-based. The conditions noted are these: dose 1.0 µg/ml, time 30.0 hrs. For orientation: In an ELISA, binding on a coated surface is turned into a signal by an enzyme label.

The nature of series [3]: Cytotoxicity against mouse RAW264.7 cells assessed as cell viability at 1 microg/ml measured after 24 hrs by CCK-8 assay. Type of series: toxicity, cell-based. The conditions noted are these: at 1 µg/mL, read-out: Activity. (In general: Tetrazolium dyes change colour on reduction, which living cells bring about.)
Series [4] has as its system RAW264.7. Put plainly: Antiinflammatory activity in LPS-induced mouse RAW264.7 cells assessed as inhibition of IL-1beta expression at 1 microg/ml preincubated with compound for 24 hrs followed by LPS addition for 6 hrs by ELISA method. Type of series: functional, cell-based. The conditions noted are these: dose 1.0 µg/ml, time 30.0 hrs.
Series [5] has as its system RAW264.7. Nature of the series: Antiinflammatory activity in LPS-induced mouse RAW264.7 cells assessed as inhibition of NO expression at 1 microg/ml preincubated with compound for 24 hrs followed by LPS addition for 6 hrs by DAF-FM diacetate probe based analysis. Format: functional, cell-based. The conditions noted are these: dose 1.0 µg/ml, time 30.0 hrs.
The test system of series [6] is RAW264.7. Put plainly: Antiinflammatory activity in LPS-induced mouse RAW264.7 cells assessed as effect on IL-1beta level at 1 microg/ml preincubated with compound for 24 hrs followed by LPS addition for 6 hrs by ELISA method. The conditions noted are these: dose 1.0 µg/ml, time 30.0 hrs. Format: functional, cell-based.
The subject of series [7] is RAW264.7. Nature of the series: Antiinflammatory activity in LPS-induced mouse RAW264.7 cells assessed as effect on TNF-alpha level at 1 microg/ml preincubated with compound for 24 hrs followed by LPS addition for 6 hrs by ELISA method. Type of series: functional, cell-based. The conditions noted are these: dose 1.0 µg/ml, time 30.0 hrs.
The subject of series [8] is RAW264.7. Put plainly: Antiinflammatory activity in LPS-induced mouse RAW264.7 cells assessed as effect on NO level at 1 microg/ml preincubated with compound for 24 hrs followed by LPS addition for 6 hrs by DAF-FM diacetate probe based analysis. Type of series: functional, cell-based. The conditions noted are these: dose 1.0 µg/ml, time 30.0 hrs.
For series [9], the system named is RAW264.7. Put plainly: Antiinflammatory activity in LPS-induced mouse RAW264.7 cells assessed as inhibition of NO generation at 1 microg/ml preincubated with compound for 24 hrs followed by LPS addition for 6 hrs by DAF-FM diacetate probe based analysis. Format: functional, cell-based. The conditions noted are these: dose 1.0 µg/ml.
The subject of a further series is Mus musculus. Put plainly: Anti-inflammatory activity against collagenase-induced osteoarthritis C57BL/6J mouse model assessed as improvement in cartilage thickness at 1 mg/kg, ip measured on day 14 by H and E staining based analysis. Format: functional, organism-based. The conditions noted are these: time 14.0 day.

For `COCCOCCOCCOCCOCCSC[C@@H](NC(=O)[C@@H](CCC(N)=O)NC(=O)[C@H](N)CCSC)C(=O)N[C@H](CC(N)=O)C(=O)N[C@H](CO)C(N)=O`, the result in the series on RAW264.7 [1] and with RAW264.7 [2] was Active. Moreover, in series [3], the viability at 24 h, 1 microg/ml is roughly 80%.

With `CSCC[C@@H](N)C(=O)N[C@H]1CC(=O)NCCCC[C@@H](C(=O)N[C@@H](CO)C(N)=O)NC(=O)[C@H](CS)NC1=O`, the outcome with RAW264.7 [4] was inactive. Further, the viability at 24 h, 1 microg/ml in [3] was roughly 80%.

In the case of `CSCC[C@H](N)C(=O)N[C@H](CCC(N)=O)C(=O)N[C@@H](CS)C(=O)N[C@@H](CC(N)=O)C(=O)N[C@@H](CO)C(N)=O`, the result in the series with RAW264.7 [1] was inactive. The result in the series on RAW264.7 [2] and in the series with RAW264.7 [5] was Active. Moreover, the viability at 24 h, 1 microg/ml in series [3] is roughly 80%.

For the compound `CSCC[C@H](N)C(=O)N[C@@H](CCC(N)=O)C(=O)N[C@@H](CS)C(=O)N[C@H](CC(N)=O)C(=O)N[C@@H](CO)C(N)=O`, the result in the series with RAW264.7 [1] was inactive. Besides, the result with RAW264.7 [2] and with RAW264.7 [5] was Active. Also, the viability at 24 h, 1 microg/ml in series [3] was roughly 80%.

As to `CSCC[C@@H](N)C(=O)N[C@H]1CC(=O)NCCC[C@@H](C(=O)N[C@@H](CO)C(N)=O)NC(=O)[C@H](CS)NC1=O`, in the series on RAW264.7 [4], the outcome was inactive. For the same compound, the viability at 24 h, 1 microg/ml in series [3] was roughly 80%.

As for `COCCOCCOCCSC[C@@H](NC(=O)[C@@H](CCC(N)=O)NC(=O)[C@H](N)CCSC)C(=O)N[C@H](CC(N)=O)C(=O)N[C@H](CO)C(N)=O`, the result in the series on RAW264.7 [1] and in the series on RAW264.7 [2] was Active. The viability at 24 h, 1 microg/ml in series [3] is roughly 80%.

Regarding `CSCC[C@H](N)C(=O)N[C@@H](CCC(N)=O)C(=O)N[C@@H](CS)C(=O)N[C@@H](CC(N)=O)C(=O)N[C@H](CO)C(N)=O`, the result in the series on RAW264.7 [1] was inactive. The outcome with RAW264.7 [2] and in the series with RAW264.7 [5] was Active. Besides, the viability at 24 h, 1 microg/ml in [3] is roughly 80%.

`CSCC[C@H](N)C(=O)N[C@@H](CCC(N)=O)C(=O)N[C@H](CS)C(=O)N[C@@H](CC(N)=O)C(=O)N[C@@H](CO)C(N)=O`: the outcome with RAW264.7 [4], in the series on RAW264.7 [2] and in the series on RAW264.7 [5] was Active. Besides, the viability at 24 h, 1 microg/ml in series [3] was roughly 80%.

As to `CSCC[C@H](NC(C)=O)C(=O)N[C@@H](CCC(N)=O)C(=O)N[C@@H](CS)C(=O)N[C@@H](CC(N)=O)C(=O)N[C@@H](CO)C(N)=O` (Ac-MQCNS-NH2), the result in the series with RAW264.7 [6], in the series with RAW264.7 [7], in the series with RAW264.7 [8] and in the series with RAW264.7 [4] was Active. Also, in series [3], the viability at 24 h, 1 microg/ml is roughly 80%.

Take `CSCC[C@H](N)C(=O)N[C@H]1CCC(=O)NCCCC[C@@H](C(=O)N[C@@H](CO)C(N)=O)NC(=O)[C@H](CS)NC1=O` (H-MECKS-NH2; lactam 2-4): in the series on RAW264.7 [4], the result was inactive. Besides, the viability at 24 h, 1 microg/ml in series [3] is roughly 80%.

Consider `CSCC[C@H](N)C(=O)N[C@H]1CCC(=O)NCCC[C@@H](C(=O)N[C@@H](CO)C(N)=O)NC(=O)[C@H](CS)NC1=O` (H-MEC[Orn]S-NH2; lactam 2-4), for which, in the series with RAW264.7 [4], the outcome was inactive. Moreover, the viability at 24 h, 1 microg/ml in series [3] was roughly 80%.

With `CSCC[C@H](N)C(=O)N[C@H]1CCCCNC(=O)C[C@@H](C(=O)N[C@@H](CO)C(N)=O)NC(=O)[C@H](CS)NC1=O` (H-MKCDS-NH2; lactam 2-4), the result in the series on RAW264.7 [4] was Active. For the same compound, the result in the series with RAW264.7 [2] was inactive. The viability at 24 h, 1 microg/ml in series [3] is roughly 80%.

Consider `CSCC[C@H](N)C(=O)N[C@H]1CCCCNC(=O)CC[C@@H](C(=O)N[C@@H](CO)C(N)=O)NC(=O)[C@H](CS)NC1=O` (H-MKCES-NH2; lactam 2-4), for which the result in the series on RAW264.7 [4] was Active. In the series with RAW264.7 [9], the outcome was inactive. Also, in series [3], the viability at 24 h, 1 microg/ml is roughly 80%.

On to `CSCC[C@H](N)C(=O)N[C@H]1CCCNC(=O)C[C@@H](C(=O)N[C@@H](CO)C(N)=O)NC(=O)[C@H](CS)NC1=O` (H-M[Orn]CDS-NH2; lactam 2-4), for which the outcome in the series with RAW264.7 [4] was Active. Also, in series [3], the viability at 24 h, 1 microg/ml was roughly 80%.

For `CSCC[C@H](N)C(=O)N[C@H]1CCCNC(=O)CC[C@@H](C(=O)N[C@@H](CO)C(N)=O)NC(=O)[C@H](CS)NC1=O` (H-M[Orn]CES-NH2; lactam 2-4), the outcome with RAW264.7 [4] and in the series with Mus musculus was Active. Besides, in [3], the viability at 24 h, 1 microg/ml stood at 81.9%.

On to `CSCCC(N)C(=O)N[C@@H](CCC(N)=O)C(=O)N[C@@H](CS)C(=O)N[C@@H](CC(N)=O)C(=O)N(C)[C@@H](CO)C(N)=O` (some centres not stated) (H-[ξM]QCN[NMeS]-NH2), for which the outcome with RAW264.7 [1] and with RAW264.7 [2] was Active. The outcome in the series on RAW264.7 [9] was inactive. For the same compound, the viability at 24 h, 1 microg/ml in series [3] was roughly 80%.

For `CSCCC(N)C(=O)N[C@@H](CCC(N)=O)C(=O)N[C@@H](CS)C(=O)N(C)[C@@H](CC(N)=O)C(=O)N[C@@H](CO)C(N)=O` (some centres not stated) (H-[ξM]QC[NMeN]S-NH2), the result in the series on RAW264.7 [1] and with RAW264.7 [2] was Active. In the series with RAW264.7 [9], the outcome was inactive. In addition, the viability at 24 h, 1 microg/ml in series [3] was roughly 80%.

In the case of `CSCCC(N)C(=O)N[C@@H](CCC(N)=O)C(=O)N(C)[C@@H](CS)C(=O)N[C@@H](CC(N)=O)C(=O)N[C@@H](CO)C(N)=O` (some centres not stated) (H-[ξM]Q[NMeC]NS-NH2), the outcome in the series on RAW264.7 [1] and in the series on RAW264.7 [2] was Active. The outcome in the series on RAW264.7 [9] was inactive. Further, the viability at 24 h, 1 microg/ml in series [3] was roughly 80%.

With `CNC(CCSC)C(=O)N[C@@H](CCC(N)=O)C(=O)N[C@@H](CS)C(=O)N[C@@H](CC(N)=O)C(=O)N[C@@H](CO)C(N)=O` (some centres not stated) (H-[ξNMeM]QCNS-NH2), the outcome in the series with RAW264.7 [1] and in the series on RAW264.7 [2] was Active. Besides, the outcome in the series with RAW264.7 [9] was inactive. The viability at 24 h, 1 microg/ml in series [3] was roughly 80%.

Take `CCCCCCC(=O)N[C@@H](CCSC)C(=O)N[C@@H](CCC(N)=O)C(=O)N[C@@H](CS)C(=O)N[C@@H](CC(N)=O)C(=O)N[C@@H](CO)C(N)=O` (Heptanoyl-MQCNS-NH2): the outcome with RAW264.7 [6], in the series on RAW264.7 [7], in the series on RAW264.7 [8] and in the series with RAW264.7 [4] was Active. Further, the viability at 24 h, 1 microg/ml in [3] is roughly 80%.

Take `CCCCC(=O)N[C@@H](CCSC)C(=O)N[C@@H](CCC(N)=O)C(=O)N[C@@H](CS)C(=O)N[C@@H](CC(N)=O)C(=O)N[C@@H](CO)C(N)=O` (Pentanoyl-MQCNS-NH2): the result with RAW264.7 [6], in the series with RAW264.7 [7], in the series on RAW264.7 [8] and with RAW264.7 [4] was Active. Also, the viability at 24 h, 1 microg/ml in series [3] is roughly 80%.

`COCCOCCOCCOCCOCCOCCOCCC(=O)N[C@@H](CCSC)C(=O)N[C@@H](CCC(N)=O)C(=O)N[C@@H](CS)C(=O)N[C@@H](CC(N)=O)C(=O)N[C@@H](CO)C(N)=O` (X1-MQCNS-NH2): the result in the series on RAW264.7 [6], with RAW264.7 [7], in the series on RAW264.7 [8] and in the series on RAW264.7 [4] was Active. Further, in series [3], the viability at 24 h, 1 microg/ml is roughly 80%.
